Test results taken from ChEMBL document CHEMBL1133437, “Parallel synthesis of a library of 1,4-naphthoquinones and automated screening of potential inhibitors of trypanothione reductase from Trypanosoma cruzi” (Bioorg Med Chem Lett, 2000).

What was measured:
Trypanothione reductase = Trypanothione reductase (Trypanosoma cruzi, UniProt P28593); experiment: Concentration required for inhibition of Trypanothione reductase (TcTR) from Trypanosoma cruzi in the presence of 50 uM TS2 as substrate
[1] = Concentration required for inhibition of human homologous Disulphide oxidoreductase (hGR)
[2] = target: Trypanothione reductase (Trypanosoma cruzi) (UniProt P28593); experiment: Percentage inhibition of Trypanothione reductase at 25 uM in the presence of 200 uM DTNBA as substrate
[3] = Concentration required for inhibition of human homologous Disulphide oxidoreductase (hGR) in the presence of GSSG as substrate

Chain of Trypanothione reductase (Trypanosoma cruzi) (P28593 whole entry, looked up): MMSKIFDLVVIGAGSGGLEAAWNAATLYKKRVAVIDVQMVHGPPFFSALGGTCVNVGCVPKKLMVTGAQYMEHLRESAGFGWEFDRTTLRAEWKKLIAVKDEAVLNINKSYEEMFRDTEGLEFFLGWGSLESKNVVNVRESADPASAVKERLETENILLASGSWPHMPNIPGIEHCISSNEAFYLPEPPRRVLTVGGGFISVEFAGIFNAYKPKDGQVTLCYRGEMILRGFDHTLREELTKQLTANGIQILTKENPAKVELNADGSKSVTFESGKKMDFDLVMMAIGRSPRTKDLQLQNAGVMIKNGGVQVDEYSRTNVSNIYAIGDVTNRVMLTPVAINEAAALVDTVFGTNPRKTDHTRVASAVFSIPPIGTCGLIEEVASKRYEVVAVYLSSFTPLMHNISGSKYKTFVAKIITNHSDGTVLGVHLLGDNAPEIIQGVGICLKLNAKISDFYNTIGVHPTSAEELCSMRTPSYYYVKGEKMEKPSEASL
Chain of Trypanothione reductase (P28593 whole entry): as the sequence (P28593 whole entry, looked up) above

Row | SMILES | IC50 (Trypanothione reductase) [µM] | IC50 [1] [µM] | inhibition [2] [%] | IC50 [3] [µM]
1 | CC1=CC(=O)c2c(O)cccc2C1=O [PLUMBAGIN] | 28 | 38 | – | –
2 | CCCCN(CCCC)CCCNC(=O)CCCCC1=C(CCCCC(=O)NCCCN(CCCC)CCCC)C(=O)c2c(O)cccc2C1=O | 0.6 | – | 81 | > 50
3 | CCCCN(CCCC)CCCNC(=O)CCCCC1=C(C)C(=O)c2ccccc2C1=O | 1.1 | – | 86 | > 50
4 | CCCCN(CCCC)CCCNC(=O)CCCCC1=C(C)C(=O)c2cccc(O)c2C1=O | 0.3 | – | 88 | 41
5 | CC1=C(CCCCC(=O)NCCCNCCCNC(=O)CCCCC2=C(C)C(=O)c3cccc(O)c3C2=O)C(=O)c2c(O)cccc2C1=O | 0.5 | – | 79 | 10
6 | CC1=CC(=O)c2ccccc2C1=O [MENADIONE] | 55 | 63 | – | –
